Results as given in publication PMC10994617, “In silico study, synthesis, and antineoplastic evaluation of thiazole-based sulfonamide derivatives and their silver complexes with expected carbonic anhydrase inhibitory activity” (Journal of Medicine and Life, 2023).
Read-outs that look alike come from different tables or passages of the source.

Experiments:
MCF-7 = assay: MTT cytotoxicity assay, MCF-7 breast cancer cell line; assay type: cell-based, human; details: MCF-7, MTT
Text: (§1) To evaluate the antitumor activity of the newly synthesized sulfonamide carbonic anhydrase inhibitors (compounds M3, M4, and M5), we employed cell line assays using 3-(4,5-dimethylthiazol-2-yl)-2,5-diphenyltetrazolium (MTT). Two cell types were utilized in this study: MCF-7, a breast cancer cell line, to assess the effects of the compounds on cancer cells, and MCF10A, a normal breast epithelial cell line, to evaluate the effects on non-cancerous cells. These cell lines were procured from the Iranian National Cell Bank at the Pasteur Institute. MCF-7 cells were cultured in RPMI-1640 medium, while MCF10A cells were cultured in DMEM: F12 medium. Both media were supplemented with 10% fetal bovine serum (FBS), followed by the addition of antibiotics (100 µg/ml streptomycin and 100 units/ml penicillin). The cells were maintained in a humidified atmosphere at 37°C with 5% carbon dioxide. For cell passaging, a trypsin/EDTA solution (Gibco) and phosphate-buffered saline (PBS) were utilized. Cell viability was assessed using MTT from Sigma-Aldrich. Each type of cell (MCF-7 and MCF10A) was cultured separately in 96-well plates (1.4 × 10^4 cells per well with 200 µl of fresh medium) after a full day had passed (temperature of 37°C in a 5% CO2 environment). The supernatant was removed, and MTT solution at a concentration of 200 µl was added to each well and then incubated for four hours at a temperature of 37°C. After the end of the incubation period and to dissolve the formazan crystals, 100 µl of dimethyl sulfoxide (DMSO) was added, and the plate was left in a shaker at a temperature of 37°C until it was confirmed that all the crystals had completely dissolved. An ELISA reader (Model Wave xs2, BioTek) was used to measure cell vitality by absorption at 570 nm and calculate the IC50 values.

MCF10A = assay: MTT cytotoxicity assay, MCF10A normal breast epithelial cell line; assay type: cell-based; details: MCF10A normal cells, read-out: MCF10A IC50 (µM) ± SD
Text: as §1

[1] = Homo sapiens, MCF7, read-out: MCF-7 IC50 (µM) ± SD

N.N.[Cl][Pt][Cl] [Cisplatin, reference compound]
IC50 (MCF-7; read-out: MCF-7 IC50 (µM) ± SD): 15.1 ± 2.25 µM
IC50 (MCF10A): 13.6 ± 3.45 µM

CN(C)c1ccc(/C=N/c2nc(Nc3ccc(S(N)(=O)=O)cc3)cs2)cc1 [Compound M4]
IC50 (MCF-7; Homo sapiens, MCF7, read-out: IC50 against MCF-7 cells): 77.4 µg/mL
IC50 (MCF-7; [1]): 77.4 ± 3.31 µM
IC50 (MCF10A; Homo sapiens, MCF-10A): 52.5 ± 3.31 µM

NS(=O)(=O)c1ccc(Nc2csc(N=Cc3ccc(O)cc3)n2)cc1 (stereo in doubt) [Compound M3, (Z)-4-((2-((4-hydroxybenzylidene)amino)thiazol-4-yl)amino) benzene sulfonamide]
IC50 (MCF-7; [1]): 87.7 ± 2.16 µM
IC50 (MCF10A; Homo sapiens, MCF-10A): 135 ± 4.19 µM
